Experimental data: patent US20170354639A1, “DITERPENOID DERIVATIVES AND METHODS OF USE THEREOF” (Biogen MA Inc., priority 2014, published 2017)

Target: Nrf2-Keap1 (Homo sapiens, UniProt Q14145)
Assay: DiscoveRx PathHunter Nrf2-Keap1 nuclear translocation functional assay (agonist format)
Type: cell-based
Details: in duplicate, agonist mode; for EC50: 10 concentrations, 3-fold serial dilutions, 30 μM top concentration, normalized to CDDO methyl ester and vehicle; for activation at 10 µM: single concentration of 10 μM, normalized to control ligand (CDDO methyl ester) and vehicle
Protocol: DiscoveRx PathHunter® Nrf2-Keap1 Functional Assay
DiscoveRx's Nrf2-Keapl translocation assay was used to profile compounds. Primary Screening was performed in duplicate at a single concentration of 10 μM and EC50 determinations were performed in duplicate at 10 concentrations with 3-fold serial dilutions at a 30 μM top concentration or an otherwise specified top concentration.
The PathHunter® Nuclear Translocation assay detects translocation of a target protein to, or from, the nucleus. In this system, Prolink™ (PK), a small enzyme fragment, is fused to the protein of interest and Enzyme Acceptor (EA) is localized in the nucleus. Activation of the signaling pathway induces the target protein to either transit into the nucleus, thus forcing complementation of the PK and EA fragments, or out of the nucleus, hindering complementation of the fragments.
Cell handling: PathHunter Pathway cell lines were expanded from freezer stocks according to standard procedures. 5000 cells were seeded in Cell Plating Reagent 0 (containing 1% FBS) to a total volume of 20 μL into white walled, 384-well microplates and incubated for the overnight prior to testing.
Agonist format: For Agonist determination, cells were incubated with sample to induce response. Dilution of sample stocks was performed to generate 100× sample in DMSO. Intermediate dilution of sample stocks was performed to generate 5× sample in assay buffer (Cell Plating Reagent 0 containing 1% FBS). 5 μL of 5× sample was added to cells and incubated at room temperature for 6 hours. Vehicle concentration was 1%.
Signal detection: Assay signal was generated through a single addition of 25 μL (100% v/v) of PathHunter Flash Detection reagent, followed by a one hour incubation at room temperature. Microplates were read following signal generation with a PerkinElmer Envision™ instrument for chemiluminescent signal detection.
Data analysis: Compound activity was analyzed using CBIS data analysis suite (ChemInnovation, CA). For agonist mode assays, percentage activity was calculated using the following formula: % Activity=100%×(mean RLU of test sample−mean RLU of vehicle control)/(mean MAX RLU control ligand−mean RLU of vehicle control). For EC50 determination, a control agonist dose response curve was generated in the Keap 1-Nrf2 biosensor assay, data was normalized to the maximal and minimal response observed in the presence of the control ligand and vehicle respectively. CDDO methyl ester was used as a control compound. Compounds were tested in the agonist mode of the assay and data was normalized to the maximal and minimal response observed in the presence of control ligand and vehicle.

Chain of Nrf2-Keap1 (Q14145 whole entry): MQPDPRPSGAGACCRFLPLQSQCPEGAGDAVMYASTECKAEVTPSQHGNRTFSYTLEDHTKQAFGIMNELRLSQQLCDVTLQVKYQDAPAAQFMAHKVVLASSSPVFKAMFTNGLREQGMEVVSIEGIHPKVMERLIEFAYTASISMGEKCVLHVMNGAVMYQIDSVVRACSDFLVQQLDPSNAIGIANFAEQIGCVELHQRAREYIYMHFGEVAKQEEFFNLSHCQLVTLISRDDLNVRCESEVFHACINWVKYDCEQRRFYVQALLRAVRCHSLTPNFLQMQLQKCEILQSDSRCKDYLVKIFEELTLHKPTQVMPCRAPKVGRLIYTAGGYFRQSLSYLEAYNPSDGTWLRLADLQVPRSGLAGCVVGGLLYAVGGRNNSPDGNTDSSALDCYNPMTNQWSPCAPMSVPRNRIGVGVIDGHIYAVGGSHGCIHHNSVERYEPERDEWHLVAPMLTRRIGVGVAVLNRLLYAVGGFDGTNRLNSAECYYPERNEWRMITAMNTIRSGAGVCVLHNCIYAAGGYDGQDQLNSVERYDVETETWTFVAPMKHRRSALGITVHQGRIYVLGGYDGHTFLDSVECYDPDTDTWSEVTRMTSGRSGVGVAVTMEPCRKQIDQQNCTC

Structure (SMILES)	EC50 [nM]	activation at 10 µM (6 h) [%]	activation at 10 µM (6 hours) [%]
CC1=CC[C@@H]2[C@@H](C)[C@H](O)CC[C@@]2(C)[C@@H]1C/C=C1/C(=O)OC[C@H]1O [Example 3, (S,E)-4-hydroxy-3-(2-((1R,4aR,5R,6R,8aR)-6-hydroxy-2,5,8a-trimethyl-1,4,4a,5,6,7,8,8a-octahydronaphthalen-1-yl)ethylidene)dihydrofuran-2(3H)-one]	< 500	> 100	–
C=C1CC[C@@H]2[C@@H](C)[C@](C)(O)CC[C@@]2(C)[C@@H]1C/C=C1/C(=O)OC[C@H]1O [Example 4, (S,E)-4-hydroxy-3-(2-((1R,4aR,5R,6R,8aR)-6-hydroxy-5,6,8a-trimethyl-2-methylenedecahydronaphthalen-1-yl)ethylidene)dihydrofuran-2(3H)-one]	< 500	> 100	–
C=C1CC[C@@H]2[C@@H](C)[C@@](C)(O)CC[C@@]2(C)[C@@H]1C/C=C1/C(=O)OC[C@H]1O [Example 5, (S,E)-4-hydroxy-3-(2-((1R,4aR,5R,6S,8aR)-6-hydroxy-5,6,8a-trimethyl-2-methylenedecahydronaphthalen-1-yl)ethylidene)dihydrofuran-2(3H)-one]	< 500	> 100	–
C=C1CC[C@H]2[C@@](C)(CC[C@](C)(O)[C@@]2(C)CO)[C@@H]1C/C=C1/C(=O)OC[C@H]1O [Example 6, (S,E)-4-hydroxy-3-(2-((1R,4aS,5R,6S,8a5)-6-hydroxy-5-(hydroxymethyl)-5,6,8a-trimethyl-2-methylenedecahydronaphthalen-1-yl)ethylidene)dihydrofuran-2(3H)-one]	–	51 to 100	–
C=C1CC[C@H]2[C@@](C)(CC[C@@](C)(O)[C@@]2(C)CO)[C@@H]1C/C=C1/C(=O)OC[C@H]1O [Example 7, (S,E)-4-hydroxy-3-(2-((1R,4aS,5R,6R,8a5)-6-hydroxy-5-(hydroxymethyl)-5,6,8a-trimethyl-2-methylenedecahydronaphthalen-1-yl)ethylidene)dihydrofuran-2(3H)-one]	–	51 to 100	–
C=C1CC[C@@H]2[C@]3(C)C=NO[C@@H]3CC[C@@]2(C)[C@@H]1C/C=C1/C(=O)OC[C@H]1O [Example 12, (S,E)-3-(2-((3aR,5aS,6R,9aS,9bR)-5a,9b-dimethyl-7-methylene-3a,4,5,5a,6,7,8,9,9a,9b-decahydronaphtho[1,2-d]isoxazol-6-yl)ethylidene)-4-hydroxydihydrofuran-2(3H)-one]	500 to 2000	–	51 to 100
C=C1CC[C@H]2[C@@](C)(CC[C@@]3(C)ON=C[C@@]23C)[C@@H]1C/C=C1/C(=O)OC[C@H]1O [Example 14, (S,E)-4-hydroxy-3-(2-((3aR,5aS,6R,9aS,9bR)-3a,5a,9b-trimethyl-7-methylene-3a,4,5,5a,6,7,8,9,9a,9b-decahydronaphtho[1,2-d]isoxazol-6-yl)ethylidene)dihydrofuran-2(3H)-one]	> 2000	> 100	–
C=C1CC[C@@H]2[C@@H](C)[C@H](NC)CC[C@@]2(C)[C@@H]1C/C=C1/C(=O)OC[C@H]1O [Example 15, (4S,E)-3-(2-((1R,4aR,5R,8aR)-5,8a-dimethyl-6-(methylamino)-2-methylenedecahydronaphthalen-1-yl)ethylidene)-4-hydroxydihydrofuran-2(3H)-one]	500 to 2000	51 to 100	–
C=C1CC[C@@H]2[C@@H](C)[C@H](OC)CC[C@@]2(C)[C@@H]1C/C=C1/C(=O)OC[C@H]1O [Example 16, (S,E)-4-hydroxy-3-(2-((1R,4aR,5R,6R,8aR)-6-methoxy-5,8a-dimethyl-2-methylenedecahydronaphthalen-1-yl)ethylidene)dihydrofuran-2(3H)-one]	< 500	> 100	–
CO[C@@H]1CC[C@@]2(C)[C@H](C/C=C3/C(=O)OC[C@H]3O)C(C)=CC[C@@H]2[C@H]1C [Example 17, (S,E)-4-hydroxy-3-(2-((1R,4aR,5R,6R,8aR)-6-methoxy-2,5,8a-trimethyl-1,4,4a,5,6,7,8,8a-octahydronaphthalen-1-yl)ethylidene)dihydrofuran-2(3H)-one]	500 to 2000	51 to 100	–
CO[C@@H]1CC[C@@]2(C)C(C/C=C3/C(=O)OC[C@H]3O)=C(C)CC[C@@H]2[C@H]1C [Example 18, (S,E)-4-hydroxy-3-(2-((4aR,5R,6R,8aR)-6-methoxy-2,5,8a-trimethyl-3,4,4a,5,6,7,8,8a-octahydronaphthalen-1-yl)ethylidene)dihydrofuran-2(3H)-one]	–	30 to 50	–

Now from value to compound, other results behind:

EC50 [nM]	activation at 10 µM (6 h) [%]	Structure (SMILES)	activation at 10 µM (6 hours) [%]
< 500	> 100	C=C1CC[C@@H]2[C@@H](C)[C@H](O)CC[C@@]2(C)[C@@H]1C/C=C1/C(=O)OC[C@H]1O [Example 2, (S,E)-4-hydroxy-3-(2-((1R,4aR,5R,6R,8aR)-6-hydroxy-5,8a-dimethyl-2-methylenedecahydronaphthalen-1-yl)ethylidene)dihydrofuran-2(3H)-one]	–
500 to 2000	> 100	C=C1CC[C@@H]2[C@]3(C)CO[S@](=O)O[C@@H]3CC[C@@]2(C)[C@@H]1C/C=C1/C(=O)OC[C@H]1O [Example 8, (S,E)-3-(2-((3S, 4aR, 6aS, 7R, 10aS, 10bR)-6a,10b-dimethyl-8-methylene-3-oxidodecahydro-1H-naphtho[2,1-d][1,3,2]dioxathiin-7-yl)ethylidene)-4-hydroxydihydrofuran-2(3H)-one]	–
500 to 2000	–	C=C1CC[C@@H]2[C@]3(C)CO[S@@](=O)O[C@@H]3CC[C@@]2(C)[C@@H]1C/C=C1/C(=O)OC[C@H]1O [Example 9, (S,E)-3-(2-((3R,4aR,6aS,7R,10aS,10bR)-6a,10b-dimethyl-8-methylene-3-oxidodecahydro-1H-naphtho[2,1-d][1,3,2]dioxathiin-7-yl)ethylidene)-4-hydroxydihydrofuran-2(3H)-one]	–
–	51 to 100	C=C1CC[C@@H]2[C@]3(C)CO[S@](=O)O[C@@H]3CC[C@@]2(C)[C@@H]1C/C=C1/C(=O)OC[C@@H]1O [Example 10, (R,E)-3-(2-((3S,4aR,6aS,7 R,10aS,10bR)-6a,10b-dimethyl-8-methylene-3-oxidodecahydro-1H-naphtho[2,1-d][1,3,2]dioxathiin-7-yl)ethylidene)-4-hydroxydihydrofuran-2(3H)-one]	–
500 to 2000	> 100	C=C1CC[C@H]2[C@@](C)(CCC3=NOC[C@]32C)[C@@H]1C/C=C1/C(=O)OC[C@H]1O [Example 11, (S,E)-3-(2-((5aS,6R,9aS,9bS)-5a,9b-dimethyl-7-methylene-1,4,5,5a,6,7,8,9,9a,9b-decahydronaphtho[2,1-c]isoxazol-6-yl)ethylidene)-4-hydroxydihydrofuran-2(3H)-one]	–
500 to 2000	> 100	C=C1CC[C@H]2[C@@](C)(CC[C@@]3(C)O[S@@](=O)OC[C@@]23C)[C@@H]1C/C=C1/C(=O)OC[C@H]1O [Example 13, (S,E)-4-hydroxy-3-(2-((3S,4aR,6aS,7R,10aS,10bR)-4a,6a,10b-trimethyl-8-methylene-3-oxidodecahydro-1H-naphtho[2,1-d][1,3,2]dioxathiin-7-yl)ethylidene)dihydrofuran-2(3H)-one]	–
–	51 to 100	C=C1CC[C@@H]2[C@]3(C)COS(=O)O[C@@H]3CC[C@@]2(C)[C@@H]1C/C=C1/C(=O)OCC1NC=O (stereo partly drawn) [Example 19, N-((E)-4-(2-((4aR,6aS,7R,10aS,10bR)-6a,10b-dimethyl-8-methylene-3-oxidodecahydro-1H-naphtho[2,1-d][1,3,2]dioxathiin-7-yl)ethylidene)-5-oxotetrahydrofuran-3-yl)formamide]	–
